According to US6645996B1, “Physiologically active substances” (Mercian Corporation and Eisai Co., Ltd., priority 1998, dated 2003):

Key:
[1] = tested on: aorta pieces of rat; test: Inhibition of capillary formation in rat aorta model (aorta pieces cultured in collagen gel); assay type: cell-based; settings: 7th day from addition of sample
Experimental: In a method of screening the antiangiogenic effect, the degree of inhibition to the formation of lumens observed when an aortic fragment of a rat is cultured in a collagen gel was selected as an indicator (Nicosia R. F., Lab. Invest., 63, 115, 1990). Also, for the purpose of analyzing the mechanism of action of the antiangiogenic effect of the resulting compound, measurements were made concerning the effect of inhibiting the growth of endothelial cells by using endothelial cells derived from the human umbilical cord vein and the effect of inhibiting the expression of an adhesion molecules on endothelial cells.
The antiangiogenic potency was evaluated by the inhibition of capillary formation in rat aorta model in which aorta pieces of rat were cultured in collagen gel. That is, the aorta excised from male rat of Sprague-Dawley strain (8-12 weeks age) was washed with a Hanks' solution so that fat tissues around there were removed minutely. The aorta was incised to prepare pieces of 2 mm square and they were allowed to stand in a 24-well plate holding the endothelial cells upside. Then, 500 μl of neutralized Type I collagen (Cell Matrix Type I-A; manufactured by Nitta Gelatin) were poured over each well and allowed to stand at room temperature for about 20 minutes in a clean bench to solidify the gel. After gelling, 500 μl of MCDB 131 medium (manufactured by Chlorella Kogyo) were added thereto followed by incubating in a Co2 incubator (5% CO2) at 37° C. On the next day, the culture medium was exchanged with 500 μl of MCDB 131 medium containing the sample and the incubation was continued. And, at the stage of the 7th day from the addition of the sample, numbers of capillaries formed around the aorta were counted. The IC50 value of each sample is defined as a concentration that the number of blood capillaries is 50% of that observed when no sample was added.

[2] = tested on: Endothelial cells derived from human umbilical vein (HUVEC); test: Inhibitory effect of growth of endothelial cells (MTT method); assay type: cell-based; settings: three days
Experimental: Endothelial cells derived from human umbilical vein (HUVEC; manufactured by Sanko Junyaku) incubated in an EGM medium (manufactured by Sanko Junyaku) were adjusted to 1×10^4 cells/ml and each 100 μl were separately placed on a 96-well plate. After incubating overnight, 100 μl of medium containing sample were added thereto followed by incubating for three days. The cell numbers at that time were measured by MTT method. That is, 50 μl of PBS solution containing 0.33% of 3-(4,5-dimethylthiazol-2-yl)-2,5-diphenyltetrazolium bromide (MTT) was added thereto and incubation was continued for further 3-4 hours. After the supernatant liquid of the culture was removed, 100 μl of DMSO was added to dissolve a formazane which was formed in the cells and the absorbance at the wave length of 460 nm was measured by use of plate reader. The IC50 value is defined as a concentration that the absorbance was 50% of that observed when no sample was added.

[3] = Solubility (analysis data); assay type: physicochemical
[4] = tested on: VCAM-1; test: Inhibition of TNFα-induced expression of adhesion molecule VCAM-1 on endothelial cells; assay type: cell-based, human; settings: HUVEC, TNFα 1 ng/ml, 4 hours
Experimental: (§1) Endothelial cells derived from human umbilical vein (HUVEC) were cultured on a 96-well plate until they were fallen in a confluent state. The culture broth was removed. After 150 μl of a new culture broth was added to each well, 20 μl of a sample solution was added thereto. After 15 minutes, 30 μl of TNFα was added such that the final concentration became 1 ng/ml and it was incubated at 37° C. for 4 hours in a 5% CO2 incubator. Next, the culture broth was removed and the cells were washed twice with a phosphate buffer (PBS). Further, a PBS solution containing 0.025% glutaraldehyde was added and the well was allowed to stand at room temperature for 6 minutes to fix the cells. After the cells were immobilized, they were washed twice with 200 μl of phosphate buffer (PBSA) containing 0.25% BSA. Thereafter 100 μl of a PBSA solution containing 1 μg/ml of mouse anti-human VCAM-1 (R&D systems) or a mouse anti-human E-selectin antibody (R&D systems) was added to each well. The well was allowed to stand at room temperature for 30 minutes and then the cells were again washed. A PBSA solution containing 100 μl of peroxidase-conjugated goat anti-mouse antibody (Cosmo Bio Co., Ltd.) was added to the well. Then the well was allowed to stand at room temperature for 30 minutes and thereafter the cells were washed. In succession, 100 μl of 3,3*,5,5*-tetramethylbenzyidine (TMB) substrate solution was added to develop a color. Next, the coloring was stopped by 100 μl of 1M phosphoric acid to measure the absorbance at 450 nm.

[5] = tested on: E-selectin; test: Inhibition of TNFα-induced expression of adhesion molecule E-selectin on endothelial cells; assay type: cell-based, human; settings: HUVEC, TNFα 1 ng/ml, 4 hours
Experimental: as §1

[6] = Safety of VD1207 analogues, intraperitoneal administration over 4 days; assay type: in vivo; parameters: key to Blood (WBC) / Blood (PLAT) / Biochemistry (UN) / Biochemistry (GPT) / Weight (liver) / Weight (kidney) / Weight (lung) / Weight (spleen) / Body weight / Blood (RBC): —: “-” indicates no abnormality; “↑” and “↓” indicate an increase and a decrease, respectively; “↑” and “↓” indicate an increase and a decrease, respectively
Experimental: Each of VD1207B, C, D, E, F and G2 was continuously administered intraperitoneally at each dose of 1 mg/kg and 2 mg/kg over 4 days to examine the safety of VD1207 analogues.

[7] = 2 mg/kg i.p. 4 days, listed as F
[8] = 2 mg/kg i.p. 4 days, listed as E
[9] = 1 mg/kg i.p. 4 days, listed as B
[10] = 2 mg/kg i.p. 4 days, listed as B

## CCCC(C(=O)c1cc(CC(C)C)c(O)c(C=O)c1O)C1CC(O)C2(OC2CCC)C(O)O1 (stereo not drawn) [VD1207 G1]
[1]
  IC50 (number of blood capillaries 50% of that without sample): 0.070 µg/mL
[2]
  IC50 (growth of endothelial cells, absorbance 50% of no sample): 0.11 µg/mL
[3]
  Solubility in ethyl acetate, chloroform and dimethyl sulfoxide: soluble
  Solubility in neutral water: insoluble

## CCC1OC12C(O)CC(C(CC(C)C)C(=O)c1cc(C(OC)C(C)C)c(O)c(C=O)c1O)OC2O (single isomer, unassigned) [VD1207 F]
[1]; listed as F
  IC50 (number of blood capillaries 50% of that without sample): 0.067 µg/mL
[2]; listed as F
  IC50 (growth of endothelial cells, absorbance 50% of no sample): 0.06 µg/mL
[4]; listed as F
  VCAM-1 (IC50 of expression): <0.63 µg/mL
[5]; listed as F
  E-select (IC50 of expression): 0.84 µg/mL
[6]; 1 mg/kg and 2 mg/kg i.p. 4 days
  Weight of each of the liver, kidney and lung (autoptic findings): increase
[6]; 1 mg/kg i.p. 4 days
  Blood (WBC): —
  Weight (lung): —
[6]; 1 mg/kg i.p. 4 days, listed as F
  Weight (kidney): ↑
[6]; 2 mg/kg i.p. 4 days
  Biochemistry (GPT): —
  Biochemistry (UN): —
  Blood (PLAT): —
  Blood (RBC): —
  Blood (WBC): ↓
  Body weight: —
  Weight (liver): ↑
  Weight (spleen): —
[6]; [7]
  Weight (kidney): ↑
  Weight (lung): ↑
[3]
  Solubility in ethyl acetate, chloroform and dimethyl sulfoxide: soluble
  Solubility in neutral water: insoluble

## CCC1OC12C(O)CC(C(CC(C)C)C(=O)c1cc(C(OC)C(C)C)c(O)c(C=O)c1O)OC2O (single isomer, unassigned) [VD1207 E]
[1]; listed as E
  IC50 (number of blood capillaries 50% of that without sample): 0.047 µg/mL
[2]; listed as E
  IC50 (growth of endothelial cells, absorbance 50% of no sample): 0.21 µg/mL
[4]; listed as E
  VCAM-1 (IC50 of expression): 2.59 µg/mL
[5]; listed as E
  E-select (IC50 of expression): 4.44 µg/mL
[6]; 1 mg/kg i.p. 4 days
  Biochemistry (GPT): —
  Biochemistry (UN): —
  Blood (PLAT): —
  Blood (RBC): —
  Blood (WBC): —
  Body weight: —
  Weight (liver): ↑
  Weight (lung): —
  Weight (spleen): —
[6]; 1 mg/kg i.p. 4 days, listed as E
  Weight (kidney): —
[6]; 2 mg/kg i.p. 4 days
  Blood (WBC): ↓
[6]; [8]
  Weight (kidney): —
  Weight (lung): —
[3]
  Solubility in ethyl acetate, chloroform and dimethyl sulfoxide: soluble
  Solubility in neutral water: insoluble

## CCCC(C(=O)c1cc(C(OC)C(C)C)c(O)c(C=O)c1O)C1CC(O)C2(OC2CC)C(O)O1 (single isomer, unassigned) [VD1207 B]
[1]; listed as B
  IC50 (number of blood capillaries 50% of that without sample): 0.053 µg/mL
[2]; listed as B
  IC50 (growth of endothelial cells, absorbance 50% of no sample): 0.24 µg/mL
[4]
  VCAM-1 (IC50 of expression): 2.48 µg/mL
[5]
  E-select (IC50 of expression): 4.0 µg/mL
[6]; 1 mg/kg i.p. 4 days
  Biochemistry (GPT): —
  Biochemistry (UN): —
  Blood (PLAT): —
  Blood (RBC): —
  Blood (WBC): —
  Body weight: —
  Weight (liver): ↑
  Weight (spleen): —
[6]; [9]
  Weight (kidney): —
  Weight (lung): —
[6]; 2 mg/kg i.p. 4 days
  Biochemistry (GPT): —
  Biochemistry (UN): —
  Blood (RBC): —
  Blood (WBC): —
  Weight (liver): ↑
  Weight (spleen): —
[6]; [10]
  Blood (PLAT): —
  Body weight: —
  Weight (kidney): —
  Weight (lung): —
[3]
  Solubility in ethyl acetate, chloroform and dimethyl sulfoxide: soluble
  Solubility in neutral water: insoluble

## CCC1OC12C(O)CC(C(CC(C)C)C(=O)c1cc(CC(C)C)c(O)c(C=O)c1O)OC2O (stereo not drawn) [VD1207 G2]
[1]
  IC50 (number of blood capillaries 50% of that without sample): 0.034 µg/mL
[2]
  IC50 (growth of endothelial cells, absorbance 50% of no sample): 0.07 µg/mL
[6]; 1 mg/kg i.p. 4 days
  Biochemistry (GPT): —
  Biochemistry (UN): —
  Blood (PLAT): —
  Blood (RBC): —
  Blood (WBC): —
  Body weight: —
  Weight (kidney): —
  Weight (liver): ↑
  Weight (lung): —
  Weight (spleen): —
[6]; 2 mg/kg i.p. 4 days
  Biochemistry (GPT): —
  Biochemistry (UN): —
  Blood (PLAT): —
  Blood (RBC): —
  Blood (WBC): ↓
  Body weight: —
  Weight (kidney): —
  Weight (liver): ↑
  Weight (lung): —
  Weight (spleen): —
[3]
  Solubility in ethyl acetate, chloroform and dimethyl sulfoxide: soluble
  Solubility in neutral water: insoluble
